Laboratory results from ChEMBL document CHEMBL3774368, “1,2,4-Triazolyl octahydropyrrolo[2,3-b]pyrroles: A new series of potent and selective dopamine D3 receptor antagonists” (Bioorg Med Chem, 2016).
Calls of active or inactive are those of the source. The calls are words filed in the database; no cut-off is given here.

Assays:
[1] = Solubility of compound; type: physicochemical
[2] = target: D(1A) dopamine receptor (Homo sapiens) (UniProt P21728); assay: Binding affinity to dopamine D1 receptor (unknown origin)
Chain of D(1A) dopamine receptor (Homo sapiens) (P21728 whole entry): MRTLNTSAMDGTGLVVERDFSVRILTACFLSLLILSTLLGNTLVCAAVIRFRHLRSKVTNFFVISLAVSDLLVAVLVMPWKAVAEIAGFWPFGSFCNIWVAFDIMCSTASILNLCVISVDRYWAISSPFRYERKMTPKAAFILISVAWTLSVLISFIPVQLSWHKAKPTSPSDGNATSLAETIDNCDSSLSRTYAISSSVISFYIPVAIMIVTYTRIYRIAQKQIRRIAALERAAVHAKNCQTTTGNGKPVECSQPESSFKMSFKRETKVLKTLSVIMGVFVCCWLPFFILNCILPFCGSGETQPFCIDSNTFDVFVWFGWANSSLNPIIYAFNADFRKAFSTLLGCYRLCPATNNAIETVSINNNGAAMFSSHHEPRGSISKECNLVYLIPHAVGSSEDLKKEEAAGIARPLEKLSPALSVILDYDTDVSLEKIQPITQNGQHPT

[3] = target: T1, D(4) dopamine receptor (Homo sapiens) (UniProt P21917); assay: Binding affinity to dopamine D4 receptor (unknown origin)
T1 sequence (whole entry): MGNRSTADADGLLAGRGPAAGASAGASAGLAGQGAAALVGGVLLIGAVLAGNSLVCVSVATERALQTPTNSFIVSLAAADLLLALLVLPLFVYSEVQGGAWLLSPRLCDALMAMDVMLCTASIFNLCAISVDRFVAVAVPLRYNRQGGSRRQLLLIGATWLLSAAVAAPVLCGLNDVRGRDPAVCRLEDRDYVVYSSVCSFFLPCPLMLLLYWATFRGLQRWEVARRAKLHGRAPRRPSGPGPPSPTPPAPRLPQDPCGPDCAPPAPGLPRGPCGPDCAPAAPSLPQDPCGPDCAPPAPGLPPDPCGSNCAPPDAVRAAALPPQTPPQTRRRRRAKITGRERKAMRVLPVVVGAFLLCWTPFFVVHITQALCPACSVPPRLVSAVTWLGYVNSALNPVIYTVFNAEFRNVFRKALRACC

D(3) dopamine receptor = D(3) dopamine receptor (Homo sapiens, UniProt P35462); assay: Displacement of [3H]-spiperone from human dopamine D3 receptor expressed in CHO-K1 cell membranes after 90 mins by liquid scintillation counter method
Chain of D(3) dopamine receptor (P35462 whole entry): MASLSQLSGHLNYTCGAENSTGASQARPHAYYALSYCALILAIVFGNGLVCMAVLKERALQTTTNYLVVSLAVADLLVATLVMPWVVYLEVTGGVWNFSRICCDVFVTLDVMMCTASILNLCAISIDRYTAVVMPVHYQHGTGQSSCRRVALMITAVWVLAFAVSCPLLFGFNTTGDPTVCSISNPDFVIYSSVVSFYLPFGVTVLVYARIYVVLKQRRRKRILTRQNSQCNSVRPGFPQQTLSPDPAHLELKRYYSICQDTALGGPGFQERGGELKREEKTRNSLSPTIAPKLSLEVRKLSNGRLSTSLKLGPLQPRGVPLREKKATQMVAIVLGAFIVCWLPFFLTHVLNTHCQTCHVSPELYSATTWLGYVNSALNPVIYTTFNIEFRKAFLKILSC

D(2) dopamine receptor [4] = target: T2, D(2) dopamine receptor (Homo sapiens, UniProt P14416); assay: Displacement of [3H]-spiperone from human dopamine D2 receptor expressed in CHO-K1 cell membranes after 120 mins by liquid scintillation counter method
T2 sequence (P14416 whole entry): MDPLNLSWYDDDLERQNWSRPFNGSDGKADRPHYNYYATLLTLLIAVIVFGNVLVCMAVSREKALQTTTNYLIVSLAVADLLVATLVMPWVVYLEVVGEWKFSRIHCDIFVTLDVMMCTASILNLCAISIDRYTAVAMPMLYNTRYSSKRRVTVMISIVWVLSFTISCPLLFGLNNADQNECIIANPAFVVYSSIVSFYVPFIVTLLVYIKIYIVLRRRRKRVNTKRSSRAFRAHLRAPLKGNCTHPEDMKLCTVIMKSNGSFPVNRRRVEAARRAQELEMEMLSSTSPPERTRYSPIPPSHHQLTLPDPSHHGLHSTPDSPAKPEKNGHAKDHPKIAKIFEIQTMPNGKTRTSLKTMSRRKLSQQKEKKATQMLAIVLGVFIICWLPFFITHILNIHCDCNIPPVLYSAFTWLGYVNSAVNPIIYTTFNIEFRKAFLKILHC

[5] = target: Voltage-gated inwardly rectifying potassium channel KCNH2 (Homo sapiens, UniProt Q12809); assay: Inhibition of human ERG tail current expressed in HEK293 cells after 5 mins by patch clamp assay
Chain of Voltage-gated inwardly rectifying potassium channel KCNH2 (Q12809 whole entry): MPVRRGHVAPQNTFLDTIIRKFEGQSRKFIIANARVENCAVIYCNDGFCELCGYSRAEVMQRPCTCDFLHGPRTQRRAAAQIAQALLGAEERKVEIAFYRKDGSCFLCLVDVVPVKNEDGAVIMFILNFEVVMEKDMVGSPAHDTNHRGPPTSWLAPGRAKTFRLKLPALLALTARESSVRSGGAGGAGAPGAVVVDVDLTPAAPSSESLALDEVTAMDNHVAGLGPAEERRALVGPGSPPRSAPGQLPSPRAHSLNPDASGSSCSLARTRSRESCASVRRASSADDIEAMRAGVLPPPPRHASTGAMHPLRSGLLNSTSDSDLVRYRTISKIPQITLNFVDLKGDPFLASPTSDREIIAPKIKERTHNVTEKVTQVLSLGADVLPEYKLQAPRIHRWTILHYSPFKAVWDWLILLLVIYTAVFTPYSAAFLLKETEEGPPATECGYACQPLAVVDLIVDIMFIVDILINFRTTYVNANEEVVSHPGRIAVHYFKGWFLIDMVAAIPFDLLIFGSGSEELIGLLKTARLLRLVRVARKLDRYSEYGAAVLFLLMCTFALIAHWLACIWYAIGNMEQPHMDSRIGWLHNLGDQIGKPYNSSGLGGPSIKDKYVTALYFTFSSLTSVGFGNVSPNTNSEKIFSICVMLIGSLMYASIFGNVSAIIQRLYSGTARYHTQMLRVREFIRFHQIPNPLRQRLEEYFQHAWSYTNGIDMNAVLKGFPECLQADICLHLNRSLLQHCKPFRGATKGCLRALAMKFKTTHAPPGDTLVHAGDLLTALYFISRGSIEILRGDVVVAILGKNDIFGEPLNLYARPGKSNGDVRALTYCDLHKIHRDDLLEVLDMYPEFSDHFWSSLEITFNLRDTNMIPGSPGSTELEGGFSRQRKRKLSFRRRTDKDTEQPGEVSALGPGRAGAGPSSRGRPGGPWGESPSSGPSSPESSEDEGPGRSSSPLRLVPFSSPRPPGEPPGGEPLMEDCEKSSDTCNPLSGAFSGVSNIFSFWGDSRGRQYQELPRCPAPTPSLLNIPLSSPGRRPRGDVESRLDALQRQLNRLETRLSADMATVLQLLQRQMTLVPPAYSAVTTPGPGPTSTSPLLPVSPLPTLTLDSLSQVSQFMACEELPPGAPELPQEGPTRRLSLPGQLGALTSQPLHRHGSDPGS

[6] = target: T3, Muscarinic acetylcholine receptor M1 (Homo sapiens, UniProt P11229); assay: Antagonist activity at recombinant human muscarinic M1 receptor expressed in CHO-K1 cells assessed as inhibition of acetylcholine induced calcium mobilization preincubated for 10 mins followed by acetylcholine addition measured after 1 hr by fluo-4 AM dye-based FLIPR assay; type: functional, cell-based
T3 sequence (P11229 whole entry): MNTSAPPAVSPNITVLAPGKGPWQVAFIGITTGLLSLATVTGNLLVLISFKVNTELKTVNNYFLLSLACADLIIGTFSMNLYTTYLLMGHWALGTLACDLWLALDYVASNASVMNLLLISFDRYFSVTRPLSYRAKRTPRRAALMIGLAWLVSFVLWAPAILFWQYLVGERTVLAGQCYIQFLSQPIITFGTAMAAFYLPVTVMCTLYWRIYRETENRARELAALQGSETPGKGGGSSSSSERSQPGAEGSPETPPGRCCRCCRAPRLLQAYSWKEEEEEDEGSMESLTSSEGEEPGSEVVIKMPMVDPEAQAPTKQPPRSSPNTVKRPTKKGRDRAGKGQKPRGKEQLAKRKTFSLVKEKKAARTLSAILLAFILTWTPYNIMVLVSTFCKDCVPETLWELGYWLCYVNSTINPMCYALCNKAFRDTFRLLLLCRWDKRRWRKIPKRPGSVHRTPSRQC

[7] = target: Muscarinic acetylcholine receptor M3 (Homo sapiens, UniProt P20309); assay: Antagonist activity at recombinant human muscarinic M3 receptor expressed in CHO-K1 cells assessed as inhibition of acetylcholine induced calcium mobilization preincubated for 10 mins followed by acetylcholine addition measured after 1 hr by fluo-4 AM dye-based FLIPR assay; type: functional, cell-based
Chain of Muscarinic acetylcholine receptor M3 (P20309 whole entry): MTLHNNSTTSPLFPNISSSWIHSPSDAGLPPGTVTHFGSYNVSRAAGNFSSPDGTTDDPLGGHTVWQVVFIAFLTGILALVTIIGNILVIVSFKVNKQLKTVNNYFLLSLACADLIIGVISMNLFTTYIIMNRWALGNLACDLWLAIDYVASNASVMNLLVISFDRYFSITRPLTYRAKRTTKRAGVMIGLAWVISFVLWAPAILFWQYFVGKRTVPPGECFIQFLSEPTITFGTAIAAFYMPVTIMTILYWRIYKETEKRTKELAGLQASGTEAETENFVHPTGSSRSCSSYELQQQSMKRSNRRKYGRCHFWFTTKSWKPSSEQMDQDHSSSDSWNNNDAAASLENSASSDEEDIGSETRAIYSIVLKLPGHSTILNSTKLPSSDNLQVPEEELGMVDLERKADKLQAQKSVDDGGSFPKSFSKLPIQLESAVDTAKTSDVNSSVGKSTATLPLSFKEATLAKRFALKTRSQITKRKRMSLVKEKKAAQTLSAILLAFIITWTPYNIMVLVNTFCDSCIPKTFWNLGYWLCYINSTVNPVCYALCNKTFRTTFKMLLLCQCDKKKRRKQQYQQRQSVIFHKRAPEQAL

[8] = Permeability across apical to basolateral side in human Caco2 cells; settings: Caco-2, permeability
Liver microsome [9] = settings: rat, microsomes, 0.5 µM
Liver microsome [10] = settings: human, microsomes, 0.5 µM
Cytochrome P450 1A2 = target: T4, Cytochrome P450 1A2 (Homo sapiens, UniProt P05177); assay: Inhibition of recombinant human CYP1A2 expressed in baculosomes preincubated for 10 mins followed by cofactor addition measured every minute for 10 mins using ethoxyresorufin as substrate by CYPEX assay
T4 sequence (P05177 whole entry): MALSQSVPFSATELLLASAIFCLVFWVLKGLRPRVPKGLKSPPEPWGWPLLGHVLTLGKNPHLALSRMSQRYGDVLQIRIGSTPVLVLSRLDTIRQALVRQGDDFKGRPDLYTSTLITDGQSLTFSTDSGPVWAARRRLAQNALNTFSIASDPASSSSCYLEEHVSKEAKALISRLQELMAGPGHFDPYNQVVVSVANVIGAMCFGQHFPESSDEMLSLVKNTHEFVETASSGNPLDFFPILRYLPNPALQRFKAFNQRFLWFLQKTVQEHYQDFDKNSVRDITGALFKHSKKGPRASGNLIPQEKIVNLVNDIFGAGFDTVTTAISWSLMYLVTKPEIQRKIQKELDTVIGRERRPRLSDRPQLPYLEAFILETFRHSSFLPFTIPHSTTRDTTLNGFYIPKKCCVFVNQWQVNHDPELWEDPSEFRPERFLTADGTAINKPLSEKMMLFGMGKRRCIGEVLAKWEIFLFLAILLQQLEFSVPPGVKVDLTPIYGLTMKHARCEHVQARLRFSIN

Cytochrome P450 2C9 = Cytochrome P450 2C9 (Homo sapiens, UniProt P11712); assay: Inhibition of recombinant human CYP2C9 expressed in baculosomes preincubated for 10 mins followed by cofactor addition measured every minute for 10 mins using 7-methoxy-4-trifluoromethylcoumarin-3-acetic acid as substrate by CYPEX assay
Chain of Cytochrome P450 2C9 (P11712 whole entry): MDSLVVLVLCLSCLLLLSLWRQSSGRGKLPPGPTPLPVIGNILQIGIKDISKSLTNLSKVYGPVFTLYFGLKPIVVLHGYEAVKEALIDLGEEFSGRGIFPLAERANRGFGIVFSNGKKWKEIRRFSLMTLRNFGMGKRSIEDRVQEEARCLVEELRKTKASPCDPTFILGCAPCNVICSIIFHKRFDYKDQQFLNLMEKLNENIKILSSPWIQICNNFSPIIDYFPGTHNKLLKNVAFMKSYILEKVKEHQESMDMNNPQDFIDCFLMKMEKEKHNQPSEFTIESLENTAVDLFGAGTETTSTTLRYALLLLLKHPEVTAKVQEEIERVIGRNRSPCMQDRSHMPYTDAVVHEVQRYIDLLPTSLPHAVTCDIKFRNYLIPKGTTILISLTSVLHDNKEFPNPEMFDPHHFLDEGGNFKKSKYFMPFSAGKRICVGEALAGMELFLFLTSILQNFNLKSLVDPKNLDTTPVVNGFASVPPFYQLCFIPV

Cytochrome P450 2C19 = Cytochrome P450 2C19 (Homo sapiens, UniProt P33261); assay: Inhibition of recombinant human CYP2C19 expressed in baculosomes preincubated for 10 mins followed by cofactor addition measured every minute for 10 mins using 3-butyryl-7-methoxycoumarin as substrate by CYPEX assay
Chain of Cytochrome P450 2C19 (P33261 whole entry): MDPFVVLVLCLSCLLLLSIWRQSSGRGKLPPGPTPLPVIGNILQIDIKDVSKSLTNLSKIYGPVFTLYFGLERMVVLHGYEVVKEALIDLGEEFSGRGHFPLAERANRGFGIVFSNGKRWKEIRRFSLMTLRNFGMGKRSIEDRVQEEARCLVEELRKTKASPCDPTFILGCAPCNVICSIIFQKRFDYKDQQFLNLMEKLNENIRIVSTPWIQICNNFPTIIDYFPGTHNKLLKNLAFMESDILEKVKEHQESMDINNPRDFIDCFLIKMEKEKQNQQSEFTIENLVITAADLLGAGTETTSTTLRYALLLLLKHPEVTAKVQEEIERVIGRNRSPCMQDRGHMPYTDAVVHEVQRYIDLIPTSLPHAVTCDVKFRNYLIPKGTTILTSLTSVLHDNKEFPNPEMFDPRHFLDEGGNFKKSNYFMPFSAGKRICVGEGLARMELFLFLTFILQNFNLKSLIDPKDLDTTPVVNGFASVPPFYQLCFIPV

Cytochrome P450 2D6 = Cytochrome P450 2D6 (Homo sapiens, UniProt P10635); assay: Inhibition of recombinant human CYP2D6 expressed in baculosomes preincubated for 10 mins followed by cofactor addition measured every minute for 10 mins using 4-methylaminomethyl-7-methoxycoumarin as substrate by CYPEX assay
Chain of Cytochrome P450 2D6 (P10635 whole entry): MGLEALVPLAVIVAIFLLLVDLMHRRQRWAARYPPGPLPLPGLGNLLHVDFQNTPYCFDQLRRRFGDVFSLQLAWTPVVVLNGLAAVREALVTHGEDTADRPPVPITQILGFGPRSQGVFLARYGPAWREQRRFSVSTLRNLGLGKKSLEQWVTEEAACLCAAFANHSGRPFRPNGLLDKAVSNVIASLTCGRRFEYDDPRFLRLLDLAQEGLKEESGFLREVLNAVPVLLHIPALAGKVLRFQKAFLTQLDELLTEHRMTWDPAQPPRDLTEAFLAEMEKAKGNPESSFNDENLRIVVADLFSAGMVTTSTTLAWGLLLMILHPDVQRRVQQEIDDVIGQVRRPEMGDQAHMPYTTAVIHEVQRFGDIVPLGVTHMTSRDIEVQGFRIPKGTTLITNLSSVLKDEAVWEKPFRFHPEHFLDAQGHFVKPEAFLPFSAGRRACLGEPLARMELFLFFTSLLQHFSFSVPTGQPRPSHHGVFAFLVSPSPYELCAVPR

Cytochrome P450 3A4 [11] = target: T5, Cytochrome P450 3A4 (Homo sapiens, UniProt P08684); assay: Inhibition of recombinant human CYP3A4 expressed in baculosomes preincubated for 10 mins followed by cofactor addition measured every minute for 10 mins using diethoxyflourescein as substrate by CYPEX assay
T5 sequence (P08684 whole entry): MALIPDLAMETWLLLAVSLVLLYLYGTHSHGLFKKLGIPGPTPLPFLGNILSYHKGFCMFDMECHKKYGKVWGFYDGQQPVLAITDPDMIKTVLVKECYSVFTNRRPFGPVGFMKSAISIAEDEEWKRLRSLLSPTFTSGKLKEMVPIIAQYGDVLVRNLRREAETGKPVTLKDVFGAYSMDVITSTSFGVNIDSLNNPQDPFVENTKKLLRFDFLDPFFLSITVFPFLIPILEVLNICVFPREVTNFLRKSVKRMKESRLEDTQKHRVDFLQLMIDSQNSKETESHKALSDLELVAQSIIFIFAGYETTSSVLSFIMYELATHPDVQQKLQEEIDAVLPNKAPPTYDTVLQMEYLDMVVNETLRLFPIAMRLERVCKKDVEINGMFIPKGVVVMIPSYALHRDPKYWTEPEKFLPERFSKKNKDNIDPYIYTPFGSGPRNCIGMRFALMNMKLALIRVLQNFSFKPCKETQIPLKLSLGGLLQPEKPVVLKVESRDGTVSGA

Cytochrome P450 3A4 [12] = target: T5, Cytochrome P450 3A4; assay: Inhibition of recombinant human CYP3A4 expressed in baculosomes preincubated for 10 mins followed by cofactor addition measured every minute for 10 mins using 7-benzyloxyquinoline as substrate by CYPEX assay
[13] = Fraction absorbed in portal vein cannulated Sprague-Dawley rat model; settings: in vivo
[14] = Volume of distribution at steady state in portal vein cannulated Sprague-Dawley rat model; settings: in vivo
[15] = Clearance in portal vein cannulated Sprague-Dawley rat blood; settings: whole blood
[16] = Half life in portal vein cannulated Sprague-Dawley rat model; settings: in vivo
[17] = Fraction unbound in Sprague-Dawley rat blood
[18] = Fraction unbound in Sprague-Dawley rat brain
in vitro [19] = settings: rat, liver microsomes, CLH
in vitro [20] = settings: human, liver microsomes, CLH
D(2) dopamine receptor [21] = target: T2, D(2) dopamine receptor; assay: Antagonist activity at human dopamine D2L receptor expressed in CHO cells assessed as inhibition of dopamine-mediated Ca+2 stimulation pretreated for 10 mins followed by addition of dopamine by fluo-4 AM dye-based FLIPR assay; type: cell-based
Homo sapiens = species on record: Homo sapiens; assay: Selectivity ratio of IC50 for human ERG to Ki for human dopamine D3 receptor

Cc1ncoc1-c1nnc(SCCCN2CC3CCN(c4ccccc4)C3C2)n1C.Cl (centres undefined)
solubility [1]: > 2000 µg/mL

Cc1ncoc1-c1nnc(SCCCN2CC3CCN(c4ccccc4)C3C2)n1C (stereo in doubt; 6b) [listing 1 of 2 here]
Activity [2]: inactive

Cc1ncoc1-c1nnc(SCCCN2CC3CCN(c4ccc(C(F)(F)F)cc4F)C3C2)n1C (stereo in doubt; 8b)
Activity [2]: inactive

Cn1c(SCCCN2CC3CCN(c4ccc(C(F)(F)F)cc4)C3C2)nnc1-c1ccc(=O)n(C)c1 (stereo in doubt; 57b) [listing 1 of 2 here]
Activity [2]: inactive | Activity [3]: inactive

Cc1ncoc1-c1nnc(SCCCN2CC3CCN(c4cccc(C#N)c4)C3C2)n1C (stereo in doubt; 12a)
Ki (D(3) dopamine receptor): 0.631 nM | Ki (D(2) dopamine receptor [4]): 31.6 nM | IC50 [5]: < 100 nM | solubility [1]: > 2200 µg/mL

Cn1c(SCCCN2CC3CCN(c4ccc(C(F)(F)F)cc4)C3C2)nnc1-c1ccc(=O)n(C)c1 (stereo in doubt; 57b) [listing 2 of 2 here]
Ki (D(3) dopamine receptor): 5.01 nM | Ki [6]: 380 nM | Ki [7]: 479 nM | Papp A→B [8]: 5.3 ×10⁻⁶ cm/s | CLH (Liver microsome [9]): 30 µL/min | CLH (Liver microsome [10]): 111 µL/min

Cc1ncoc1-c1nnc(SCCCN2CC3CCN(c4ccc(F)cc4)C3C2)n1C (stereo in doubt; 9a)
Ki (D(2) dopamine receptor [4]): 126 nM | IC50 (Cytochrome P450 1A2): > 5000 nM | IC50 (Cytochrome P450 2C9): > 5000 nM | IC50 (Cytochrome P450 2C19): > 5000 nM | IC50 (Cytochrome P450 2D6): > 5000 nM | IC50 (Cytochrome P450 3A4 [11]): > 5000 nM | IC50 (Cytochrome P450 3A4 [12]): > 5000 nM | Fa [13]: 22% | Vd [14]: 1.2 L/kg | clearance [15]: 53 mL/min/kg | half-life [16]: 18 min | fraction unbound [17]: 0.14 | fraction unbound [18]: 0.095 | Papp A→B [8]: 17.5 ×10⁻⁶ cm/s | microsomal CLint at 0.5 µM (in vitro [19]): 136 µL/min/mg | microsomal CLint at 0.5 µM (in vitro [20]): 27 µL/min/mg

Cc1ncoc1-c1nnc(SCCCN2CC3CCN(c4ccccc4)C3C2)n1C (stereo in doubt; 6b) [listing 2 of 2 here]
Ki (D(2) dopamine receptor [4]): 251 nM | IC50 [5]: 1260 nM | Ki (D(2) dopamine receptor [21]): 158 nM | Ki [6]: 1000 nM | Ki [7]: 1260 nM | IC50 (Cytochrome P450 1A2): > 1000 nM | IC50 (Cytochrome P450 2C9): > 1000 nM | IC50 (Cytochrome P450 2C19): > 1000 nM | IC50 (Cytochrome P450 2D6): > 1000 nM | IC50 (Cytochrome P450 3A4 [11]): > 1000 nM | IC50 (Cytochrome P450 3A4 [12]): > 1000 nM | Fa [13]: 50% | Vd [14]: 2.2 L/kg | clearance [15]: 80.1 mL/min/kg | half-life [16]: 18 min | microsomal CLint at 0.5 µM (in vitro [19]): 364 µL/min/mg | microsomal CLint at 0.5 µM (in vitro [20]): 88 µL/min/mg

Cc1ncoc1-c1nnc(SCCCN2CC3CCN(c4cccc(F)c4)C3C2)n1C (racemic)
Ki (D(3) dopamine receptor): 3.16 nM | Ki (D(2) dopamine receptor [4]): 158 nM | IC50 [5]: 251 nM | Selectivity ratio (Homo sapiens): 100

Cn1c(SCCCN2CC3CCN(c4ccccc4)C3C2)nnc1C1CCOCC1 (stereo in doubt; 62a)
Activity [2]: inactive | Activity [3]: inactive
